According to patent US20040076659A1, “Additive for livestock feeds” (priority 1994, published 2004):

Experiments:
[1] = Griffin et al., 1972; cited from earlier work
dairy cows = test: Tween 80 in total mixed ration, dairy herd trial (Example 4); format: in vivo, Holsteins
Source text: One hundred and twenty cows and heifers in a dairy herd of Holsteins were divided into three treatment groups of 40 animals per group. All animals were given ad libitum access to a total mixed ration (TMR) based on grass silage, corn silage, grass hay, barley and canola meal. The treatments imposed were: Treatment 1—TMR without additive (Control). Treatment 2—TMR formulated to contain 0.2% (wt/wt) Tween 80+0.1% enzyme preparation (wt/wt). Treatment 3—TMR formulated to contain 0.2% (wt/wt) Tween 80. The Tween 80 was coated onto silica to form a product containing 50% Tween 80 and 50% silica. The enzyme preparation was obtained from Lucta S. A. (Barcelona, Spain). The preparation had the following activities: β-glucanase 263.0, xylanase 75.1 and amylase 542.6. Activities were expressed as nmol of reducing sugars released per mg of enzyme in 1 min at 0.83 mg/ml enzyme concentration. The trial lasted 13 weeks. Animals received their respective dietary treatments for 12 weeks. Milk production and feed intake were monitored until the 13th week (1 week after animals had been removed from dietary treatments). Feed (TMR) offered to each group was weighed and recorded at each feeding. Each group was fed to provide a weighback of 5%. Samples of the feed offered and refused were taken daily, composited into weekly samples and dried at 55° C. for 72 hr to determine dry matter (DM) content. Daily (AM and PM) milk production by each cow was recorded. Animals were weighed two days in a row immediately after milking on a monthly basis. Milk samples were taken for compositional analyses (fat, protein, and somatic cells) in the week preceding the trial, and then during the trial at 4 week intervals. Samples were taken from both the AM and the PM milkings and analyzed individually.

## polyoxyethylene sorbitan monoleate [Tween 80]
[1]
  HLB (hydrophile-lipophile balance): 15
Dairy cows; 0.2% Tween 80 (with or without 0.1% enzyme)
  More milk per cow than control over the 12-week period: 64 kg
Dairy cows; all cows lactating at least 3 weeks before start, 0.2% Tween 80 (with or without 0.1% enzyme)
  Average increase in milk production over control: 0.76 kg/cow/day
Dairy cows; feed conversion efficiency
  Milk produced (kg) per kg of feed consumed: 1.48 kg per kg of feed
Dairy cows; fresh cows, after the 4th week of lactation
  More milk than control: approximately 4 kg more milk/cow/day
Dairy cows; mature cow, 0.2% Tween 80
  More milk than a cow on Tween 80 plus enzyme over 12 weeks: 74 kg
  More milk than a cow on the control diet over 12 weeks: 110 kg
Dairy cows; mature cows, 0.2% Tween 80
  Average increase in milk production: 1.31 kg/day
